The assay concerns Shigella sonnei. Briefly: Compound was evaluated for the inhibition of hemolysis of Shigella sonneili polysaccharide-sensitized erythrocyte using a hyper-immune rabbit serum. It is filed as functional, organism-based.

Broadly, the IC50 is the midpoint of a concentration-inhibition curve. For the compound `CO[C@@H]1OC(C(=O)O)[C@H](O)C(O)[C@@H]1NC(C)=O` (stereo partly drawn), the IC50 is 6.9 mM.
For `CO[C@@H]1OC(C(=O)O)[C@H](O[C@@H]2OC(C)[C@H](N)C(O)[C@@H]2NC(C)=O)C(O)[C@@H]1NC(C)=O` (stereo partly drawn), the IC50 was determined as 3.9 mM.
The value for `CO[C@@H]1OC(C)[C@H](N)C(O)[C@@H]1NC(C)=O` (stereo partly drawn) was 9.8 mM.

Values taken from ChEMBL document CHEMBL1132851, “Synthesis of the repeating unit of the O-specific polysaccharide of Shigella sonnei and quantitation of its serologic activity” (Bioorg Med Chem Lett, 2000).
